The target of one data set is T1, turkey P2Y1 (Meleagris gallopavo, UniProt P49652).
T1 construct: expressed in transfected cells
Briefly: Intracellular calcium measurement ([Ca2+]i, fura-2) in 1321N1 astrocytoma cells. In kind it is cell-based. On the procedure: (§1) Human 1321N1 astrocytoma cells stably expressing the turkey P2Y1, human P2Y2, human P2Y4 or rat P2Y6 were grown in Dulbecco's modified Eagle's medium containing 5% (v/v) fetal bovine serum, 100 units/ml penicillin, 100 μg/ml streptomycin and 500 μg/ml Geneticin (G-418, Life Technologies, Inc). Changes in the intracellular free calcium concentration, [Ca^2+]i were detected by dual-excitation spectrofluorometric analysis of cell suspensions loaded with fura-2, as previously described (Garrad et al., 1998; Grynkiewicz et al., 1985). Cells were assayed in 10 mM Hepes-buffered saline (pH 7.4) containing 1 mM CaCl2 and 1 mM MgCl2. The cells were pelleted in a microfuge and resuspended in 2 ml of buffer. Concentration-response data were analyzed with the Prism curve fitting program (GraphPAD Software, San Diego, Calif.). Three experiments were conducted on separate days for each P2Y receptor subtype.
(§2) The activities of compounds 2, 4B, 17, 18, 19A, 21 (isomers A and B) were examined at the G protein-coupled P2YRs, P2Y1, P2Y2, P2Y4 and P2Y6 expressed in human 1321N1 astrocytoma cells, based on intracellular calcium measurements, as described in Experimental above. In particular, the activity of compound 2, 4B and 19 was examined at P2Y1R, P2Y2R, P2Y4R and P2Y6R, and the activity of compounds 17, 18 and 21 was examined at P2Y1R only. The experiments were conducted by Prof. Gary A. Weisman from Columbia-Missouri University, Columbia, Mo., USA.

Data set [1] can be described thus: Chemical stability at pH 1.4 and 37° C. evaluated by HPLC. In kind it is physicochemical. The settings on record: pH 1.4, 37° C., after 19 h. The method, then:
The stability of 3 (isomer B) in the appropriate buffer solution (0.2 M HCl/KCl, pH=1.4) at 37° C. was evaluated by HPLC-electrospray ionization (ESI)MS for 5 days at 7-17 h intervals, and its hydrolysis rate, based on the HPLC integration changes of the 3B peak with time, was fit to a pseudo first-order exponential decay rate equation, as shown in FIGS. 2A-2B. In addition to 3B, degradation products 6, 7 and 8 were identified in the hydrolysis mixture, as depicted in Scheme 3. For instance, after 19 h, 50% of 3B was degraded giving rise to 37% of AMP-α-B and AMP-α-H (6 and 7, respectively. Both appear at the same retention time; however, MS enabled the identification of these compounds) and 13% adenosine (FIG. 2A). […]
The stability of 4 (isomer B) in the appropriate buffer solution (pH=1.4) at 37° C. was evaluated by HPLC to monitor possible dephosphorylation products. […] The solution was kept in an oil bath at 37° C. and its composition was analyzed by HPLC-MS, using a Gemini analytic column (5u C-18 110A, 150×4.60 mm) and gradient elution with Solvent System I (see Example 1) at 89:11 A:B for 15 min and then 82:18 to 74:26 A:B for 20 min at a flow rate of 1 ml/min. […] The hydrolysis rate of 4 was determined by measuring the change in the integration of the HPLC peaks of the degradation products, 6, 7 and 8, with time.

A short description of data set [2]: Stability in human blood serum, Method A. The settings on record: human blood serum and RPMI-1640, 37° C. In kind it is in vitro ADME. On the procedure:
Preparation of the Human Blood Serum: Blood Taken from Healthy Volunteers was obtained from a blood bank (Tel-Hashomer hospital, Israel), stored for 12 h at 4° C. and centrifuged in plastic tubes at 1500 g for 15 min at room temperature. The serum was separated and stored at −80° C.
The assay mixture, containing a 40 mM nucleotide derivative solution in deionized water (4.5 μl), human blood serum (180 μl) and RPMI-1640 (540 μl), was incubated at 37° C. for 1, 4, 8, 16, 24, 48, 72 and 96 h. The samples were then treated with 0.6 M of hydrochloric acid (430 μl), centrifuged for 2 min (13,000 g, 4° C.), neutralized by addition of 4 M of KOH, centrifuged for 2 min (13,000 g, 4° C.) and freeze-dried. The stability of the nucleotide was evaluated by HPLC for monitoring possible dephosphorylation products. The mixture was separated on a Gemini analytic column (5u C-18 110A, 150×4.60 mm) with gradient elution [0.01 M KH2PO4 pH=4.5 (A)/acetonitrile (B), 100:0→60:40, A:B, 20 min for 2, 3A and 3B; 100:0→95:5, A:B, 10 min for ATP] and flow rate of 1 ml/min. The hydrolysis rate was determined by measuring the change in the integration of the respective HPLC peaks with time.

For data set [3], the target named is T2, calf intestine alkaline phosphatase (Bos taurus, UniProt P19111).
T2 construct: purchased Fermentas Inc., Glen Burnie, Md
Briefly: Enzymatic stability to alkaline phosphatase. It counts as in vitro ADME. The settings on record: 37° C., as in Example 6. The method, then:
Enzyme activity was measured by the release of p-nitrophenol from the nucleotide derivatives using a UV-vis spectrophotometer at 405 nm. Relative activity and resistance of nucleotides to enzymatic hydrolysis were determined at 37° C. Briefly, 32.5 μl of nucleotide derivative (77 μg/ml in 0.1 M Tris-HCl and 0.1 M MgCl2, pH 7.5) and 6 μl of deionized water were incubated with calf intestine alkaline phosphatase (Fermentas Inc., Glen Burnie, Md., 1 unit/μl, 6.25 μl at 37° C. final pH=9.8). After 30 min, the reaction was stopped by incubation at 80° C. for 30 min. The stability of the nucleotide derivative was evaluated by HPLC to monitor possible dephosphorylation products. The mixture was separated on a Gemini analytic column (5u C-18 110A, 150×4.60 mm) using gradient elution with Solvent System I (see Example 1) at 90:10 to 70:30 A:B for 3A and 3B, and 82:18 to 50:50 for 4A, 4B and 2 over 20 min and at a flow rate of 1 ml/min.

The target of another data set is T3, rP2Y1R (Rattus norvegicus, UniProt P49651).
T3 construct: host or cells: HEK293 cells
Conditions: HEK293 cells expressing rP2Y1R, Ca2+ mobilization; cited from earlier work.

Data set [4] can be described thus: Glucose challenge in cannulated Wistar rats (insulin secretagogue efficacy). In kind it is in vivo, rat. The settings on record: starved Wistar rats.
From the text: The objective of this experiment is to study in vivo the efficacy of the compounds of the present invention as insulin secretion enhancing molecules, following a single oral gavage (per os) administration of glucose to cannulated Wister rats, by measuring the blood glucose and insulin levels following administration of the tested compound to the cannulated rats intra venues through the cannule.
A total of about 40 healthy 10-13 week old Wister rats are used. Animals are acclimatized for at least 4 days prior to commencement of treatment and are fed with non-medicated commercial sterile rodent food ad libitum. Drinking tap water are available ad libitum.
About 48 hours prior treatment, rats are weighted and a population uniform in weight (about 90% of the animals) is taken for cannulation. In particular, animals are anesthetized by 2.5% isofluran 97.5% dry air inhalation, and a P52 cannula is surgically inserted and fixed in the jugular vein and flushed with 0.3-0.5 ml 5% heparinized saline after cannulation (and thereafter, immediately after each blood collection). In case a technical problem such as fixation or clotting arises with a rat's indwelling cannula, another rat is cannulated and replace the previously allocated rat in the study.
On the day of treatment, the cannule of each one of the rats is checked, the rats are weighed, and the glucose level of each one of the rats is checked via the tail vain. […]
Glucose and insulin levels are measured 30 minutes prior to glucose administration (and prior to glibenclamide administration in the case of the positive control group); immediately before and 5 minutes after glucose administration; 15 minutes after glucose administration, namely, 5 minutes after administration of the tested compound or saline (in the cases of the first and the negative control groups, respectively); and then 30, 45, 60 120 and 150 minutes after glucose administration. […]
In a further data set the target is T4, human P2Y2 (Homo sapiens, UniProt P41231).
T4 construct: expressed in transfected cells
Briefly: Intracellular calcium measurement ([Ca2+]i, fura-2) in 1321N1 astrocytoma cells. It counts as cell-based. Set-up: key to Compound-induced activation of [Ca2+], P2Y2, response class: sr = slight response at 100 μM; nr = no response. The settings on record: 1321N1 cells expressing human P2Y2. The method, then: as §1, §2

A further data set addresses T5, human P2Y4 (Homo sapiens, UniProt P51582).
T5 construct: expressed in transfected cells
The description is as above. In kind it is cell-based. Set-up: key to Compound-induced activation of [Ca2+], P2Y4, response class: sr = slight response at 100 μM; nr = no response. The settings on record: 1321N1 cells expressing human P2Y4. The method, then:
as §1, §2

The next data set concerns the target T6, rat P2Y6 (Rattus norvegicus, UniProt Q63371).
T6 construct: expressed in transfected cells
The description is as above. The arrangement: key to Compound-induced activation of [Ca2+], P2Y6, response class: sr = slight response at 100 μM; nr = no response. The settings on record: 1321N1 cells expressing rat P2Y6. It counts as cell-based. On the procedure:
as §1, §2

Data set [5] can be described thus: Stability in human blood serum (Example 10).

Structures are written as SMILES. pEC50: −log10 of the molar value. Entries after “also recorded” stand apart in the source; their conditions may differ. Like-named read-outs stand apart in the source and are kept apart here. Bounds are passed on as bounds.

T1 sequence (P49652 whole entry): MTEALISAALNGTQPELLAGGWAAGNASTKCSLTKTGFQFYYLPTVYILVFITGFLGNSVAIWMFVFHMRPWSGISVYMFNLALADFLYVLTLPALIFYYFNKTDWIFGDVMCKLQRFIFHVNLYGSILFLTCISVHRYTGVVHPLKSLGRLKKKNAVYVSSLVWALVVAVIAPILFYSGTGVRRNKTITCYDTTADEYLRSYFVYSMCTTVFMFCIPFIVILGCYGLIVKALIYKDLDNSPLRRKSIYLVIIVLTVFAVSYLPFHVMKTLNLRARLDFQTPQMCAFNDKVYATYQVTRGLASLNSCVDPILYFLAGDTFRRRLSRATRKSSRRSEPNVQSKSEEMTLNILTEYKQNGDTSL
T2 sequence (P19111 20-506): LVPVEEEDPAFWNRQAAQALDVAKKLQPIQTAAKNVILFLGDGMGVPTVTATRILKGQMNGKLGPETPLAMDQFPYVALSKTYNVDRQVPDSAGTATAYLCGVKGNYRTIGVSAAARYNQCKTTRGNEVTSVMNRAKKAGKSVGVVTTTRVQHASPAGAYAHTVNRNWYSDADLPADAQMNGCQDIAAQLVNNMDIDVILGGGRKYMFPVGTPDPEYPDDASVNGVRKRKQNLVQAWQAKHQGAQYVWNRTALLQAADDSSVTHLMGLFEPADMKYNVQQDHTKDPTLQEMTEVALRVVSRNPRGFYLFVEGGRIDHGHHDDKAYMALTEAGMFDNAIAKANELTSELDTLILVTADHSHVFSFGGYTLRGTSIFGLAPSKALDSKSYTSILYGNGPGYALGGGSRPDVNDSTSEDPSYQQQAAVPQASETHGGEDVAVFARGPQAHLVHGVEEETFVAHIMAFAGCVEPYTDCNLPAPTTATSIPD
T4 sequence (P41231 whole entry): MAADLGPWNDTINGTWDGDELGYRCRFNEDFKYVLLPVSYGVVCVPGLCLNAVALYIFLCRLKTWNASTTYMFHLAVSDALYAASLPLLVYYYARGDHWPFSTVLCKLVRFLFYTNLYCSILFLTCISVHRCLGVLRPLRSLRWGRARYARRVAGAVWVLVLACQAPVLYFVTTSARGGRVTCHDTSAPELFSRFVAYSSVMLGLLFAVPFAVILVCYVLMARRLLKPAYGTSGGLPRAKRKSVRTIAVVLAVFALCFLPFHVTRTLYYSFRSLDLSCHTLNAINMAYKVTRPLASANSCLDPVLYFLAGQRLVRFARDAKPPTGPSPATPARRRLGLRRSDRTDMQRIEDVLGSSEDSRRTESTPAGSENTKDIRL
T6 sequence (Q63371 whole entry): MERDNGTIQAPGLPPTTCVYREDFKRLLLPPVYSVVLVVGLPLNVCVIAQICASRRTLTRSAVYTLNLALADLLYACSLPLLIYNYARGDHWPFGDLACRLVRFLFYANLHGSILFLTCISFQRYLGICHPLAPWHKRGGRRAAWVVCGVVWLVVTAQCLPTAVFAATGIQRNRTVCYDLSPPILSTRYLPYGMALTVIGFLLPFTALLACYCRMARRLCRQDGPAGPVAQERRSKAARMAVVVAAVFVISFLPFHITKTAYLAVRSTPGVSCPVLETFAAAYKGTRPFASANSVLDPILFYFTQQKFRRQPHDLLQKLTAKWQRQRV
T3 sequence (P49651 whole entry): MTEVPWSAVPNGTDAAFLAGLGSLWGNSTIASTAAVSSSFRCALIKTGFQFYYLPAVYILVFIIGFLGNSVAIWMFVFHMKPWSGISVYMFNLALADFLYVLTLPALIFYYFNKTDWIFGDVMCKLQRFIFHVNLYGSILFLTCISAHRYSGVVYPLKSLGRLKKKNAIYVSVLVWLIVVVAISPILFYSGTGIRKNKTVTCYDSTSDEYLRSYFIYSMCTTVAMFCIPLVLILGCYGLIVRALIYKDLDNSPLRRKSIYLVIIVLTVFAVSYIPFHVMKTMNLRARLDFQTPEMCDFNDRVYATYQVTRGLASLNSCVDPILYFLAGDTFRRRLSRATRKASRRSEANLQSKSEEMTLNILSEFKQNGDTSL
T5 sequence (P51582 whole entry): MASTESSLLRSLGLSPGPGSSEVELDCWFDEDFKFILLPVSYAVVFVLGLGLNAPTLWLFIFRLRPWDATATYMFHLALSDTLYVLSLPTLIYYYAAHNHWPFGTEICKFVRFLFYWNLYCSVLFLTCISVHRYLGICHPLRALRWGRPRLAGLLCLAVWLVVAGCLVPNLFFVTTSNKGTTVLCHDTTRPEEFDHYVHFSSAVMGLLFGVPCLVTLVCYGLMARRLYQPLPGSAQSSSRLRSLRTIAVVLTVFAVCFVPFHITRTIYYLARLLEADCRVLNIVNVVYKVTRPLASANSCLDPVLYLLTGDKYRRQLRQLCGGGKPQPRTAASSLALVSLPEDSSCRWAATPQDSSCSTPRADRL

On to `B[P@](=O)(OC[C@H]1O[C@@H](n2cnc3c(N)ncnc32)[C@H](O)[C@@H]1O)OP(=O)(O)CP(=O)(O)O` (single isomer, unassigned) [Compound 3B, Adenosine-β,γ-CH2-5′-O-(1-boranotriphosphate)], for which the “activity at P2Y1R, in words” value on turkey P2Y1 was “practically inactive”. The “activities at the P2YRs tested” value on turkey P2Y1 (P2Y1, P2Y2, P2Y4 and P2Y6 tested) is “insignificant activities”. The fraction degraded in [1] came out at 50%. In data set [2], the “half-life in human blood serum” value turned out to be 47.1 h.
Consider `Nc1ncnc2c1ncn2[C@@H]1O[C@H](COP(=O)(O)OP(=O)(O)O)[C@@H](O)[C@H]1O` [ADP, reference compound], for which the “half-life in human blood serum” value is “about 2 h”. The “t1/2 to alkaline phosphatase” value in [3] is “about 4 h”.
On to `CSc1nc(N)c2ncn([C@@H]3O[C@H](COP(=O)(O)OP(=O)(O)OP(=O)(O)O)[C@@H](O)[C@H]3O)c2n1` [Compound 2-MeS-ATP, 2-MeS-ATP], for which, on rP2Y1R, the pEC50 is 9.00.
As for `[BH3-]P(=O)(OC[C@H]1O[C@@H](n2cnc3c(N)nc(SC)nc32)[C@H](O)[C@@H]1O)OP(=O)([O-])[O-].[Na+].[Na+].[Na+]` (stereo partly shown) [Compound 19, 2MeS-adenosine-5′-O-(Pα-borano) diphosphate], the “glucose levels after glucose challenge relative to saline treated rats” value in data set [4] (2.5 mg/kg IV 10 minutes after glucose challenge, preliminary study) is listed as “reduced the glucose levels; also recorded: reduces glycemia”.
Turning to `[BH3-]P(=O)(OC[C@H]1O[C@@H](n2cnc3c(N)nc(SC)nc32)[C@H](O)[C@@H]1O)OP(=O)([O-])[O-].[Na+].[Na+].[Na+]` (stereo partly shown) [Compound 19A, 2MeS-adenosine-5′-O-(Pα-borano) diphosphate], the pEC50 at turkey P2Y1 (human 1321N1 astrocytoma cells expressing turkey P2Y1, read-out: Compound-induced activation of [Ca2+] EC50, P2Y1) was 7.42. The “Compound-induced activation of [Ca2+], P2Y2, response class” value on human P2Y2 is “nr”. In addition, on human P2Y4, the “Compound-induced activation of [Ca2+], P2Y4, response class” value was “nr”. Besides, on rat P2Y6, the “Compound-induced activation of [Ca2+], P2Y6, response class” value is given as “nr”. For the same molecule, the “t1/2 to alkaline phosphatase” value in data set [3] is “about 6 h”. For the same molecule, the “half-life in human blood serum” value in data set [5] (Example 10) was greater than 24 h. Moreover, the “percentage of the compound hydrolyzed” value in [5] (human blood serum, after 24 h) is recorded as 25-40%.
On to `COc1ccc(Cl)cc1C(=O)NCCc1ccc(S(=O)(=O)NC(=O)NC2CCCCC2)cc1` [glibenclamide, reference compound], for which the “glucose levels after glucose challenge relative to saline treated rats” value in data set [4] (0.25 mg/kg per os 30 minutes prior to glucose, positive control) is recorded as “reduced the glucose levels”.

The values are drawn from patent US20100256086A1, “NON-HYDROLYZABLE NUCLEOSIDE DI- OR TRI-PHOSPHATE DERIVATIVES AND USES THEREOF” (priority 2007, published 2010).
